Like-named read-outs stand apart in the source and are kept apart here.
What was measured:
[1] = tested on: MCP-1, sCD14, hs-CRP, IL-6, D-dimer, fibrinogen; assay: Study 202: biomarkers of inflammation and immune function; format: in vivo, human
Experimental: As an exploratory analysis, levels of inflammation biomarkers MCP-1, sCD14, high sensitivity C-reactive protein [hs-CRP], interleukin-6 [IL-6], D-dimer, and fibrinogen) were measured. Baseline values and changes from baseline at Week 24 and Week 48 of MCP-1, sCD14, hs-CRP, IL-6, D-dimer, and fibrinogen are summarized in Table 25.
The sCD14 samples were originally analyzed in 2 separate batches: Batch 1 included samples leading up to the Week 24 primary analysis and Batch 2 included Week 32 and Week 48 (end of study) samples. A repeat analysis of archived samples all analyzed in one batch was conducted for consistency in analysis across time points. To control for the effects of covariates, a linear mixed-model repeated-measures analysis was conducted on the changes from baseline in sCD14 (analysis dated September 2013).

[2] = Source text: Subjects with a history of HIV-2, hepatitis B and/or C, cirrhosis of the liver or any known active or chronic active liver disease were excluded from the study.
Most AEs were mild or moderate (Grade 1 or Grade 2). […] None of the Grade ≥3 AEs (preferred terms) were reported in more than 1 subject.

CCCCOCCOc1ccc(-c2ccc3c(c2)/C=C(/C(=O)Nc2ccc([S@@+]([O-])Cc4cncn4CCC)cc2)CCCN3CC(C)C)cc1 [CVC, (S)-8-[4-(2-Butoxyethoxy)phenyl]-1-isobutyl-N-(4-{[(1-propyl-1H-imidazol-5-yl)methyl]sulfinyl}phenyl)-1,2,3,4-tetrahydro-1-benzazocine-5-carboxamide]
D-dimer baseline value, mean ([1]; CVC 100 mg): 187 ng/mL | D-dimer baseline value, median ([1]; CVC 100 mg): 150 ng/mL | D-dimer change from baseline at Week 24, mean ([1]; CVC 100 mg): -32 ng/mL | D-dimer change from baseline at Week 24, median ([1]; CVC 100 mg): -1.0 ng/mL | D-dimer change from baseline at Week 48, mean ([1]; CVC 100 mg): -41 ng/mL | D-dimer change from baseline at Week 48, median ([1]; CVC 100 mg): -1.0 ng/mL | Fibrinogen baseline value, mean ([1]; CVC 100 mg): 236 mg/dL | Fibrinogen baseline value, median ([1]; CVC 100 mg): 229 mg/dL | Fibrinogen change from baseline at Week 24, mean ([1]; CVC 100 mg): -3 mg/dL | Fibrinogen change from baseline at Week 24, median ([1]; CVC 100 mg): -14 mg/dL | Fibrinogen change from baseline at Week 48, mean ([1]; CVC 100 mg): 11 mg/dL | Fibrinogen change from baseline at Week 48, median ([1]; CVC 100 mg): 15 mg/dL | IL-6 baseline value, mean ([1]; CVC 100 mg): 2.51 pg/mL | IL-6 baseline value, median ([1]; CVC 100 mg): 1.90 pg/mL | IL-6 change from baseline at Week 24, mean ([1]; CVC 100 mg): 0.42 pg/mL | IL-6 change from baseline at Week 24, median ([1]; CVC 100 mg): 0.00 pg/mL | IL-6 change from baseline at Week 48, mean ([1]; CVC 100 mg): 0.29 pg/mL | IL-6 change from baseline at Week 48, median ([1]; CVC 100 mg): 0.00 pg/mL | MCP-1 baseline value, mean ([1]; CVC 100 mg): 128 pg/mL | MCP-1 baseline value, median ([1]; CVC 100 mg): 110 pg/mL | MCP-1 change from baseline at Week 24, mean ([1]; CVC 100 mg): 493 pg/mL | MCP-1 change from baseline at Week 24, median ([1]; CVC 100 mg): 429 pg/mL | MCP-1 change from baseline at Week 48, mean ([1]; CVC 100 mg): 636 pg/mL | MCP-1 change from baseline at Week 48, median ([1]; CVC 100 mg): 523 pg/mL | hs-CRP baseline value, mean ([1]; CVC 100 mg): 0.39 mg/dL | hs-CRP baseline value, median ([1]; CVC 100 mg): 0.15 mg/dL | hs-CRP change from baseline at Week 24, mean ([1]; CVC 100 mg): -0.16 mg/dL | hs-CRP change from baseline at Week 24, median ([1]; CVC 100 mg): -0.03 mg/dL | hs-CRP change from baseline at Week 48, mean ([1]; CVC 100 mg): -0.08 mg/dL | hs-CRP change from baseline at Week 48, median ([1]; CVC 100 mg): -0.01 mg/dL | sCD14 (original values) baseline value, mean ([1]; CVC 100 mg): 1.8e+06 pg/mL | sCD14 (original values) baseline value, median ([1]; CVC 100 mg): 1.73e+06 pg/mL | sCD14 (original values) change from baseline at Week 12, mean ([1]; CVC 100 mg): -140000 pg/mL | sCD14 (original values) change from baseline at Week 12, median ([1]; CVC 100 mg): -160000 pg/mL | sCD14 (original values) change from baseline at Week 24, mean ([1]; CVC 100 mg): -190000 pg/mL | sCD14 (original values) change from baseline at Week 24, median ([1]; CVC 100 mg): -180000 pg/mL | sCD14 (original values) change from baseline at Week 32, mean ([1]; CVC 100 mg): 110000 pg/mL | sCD14 (original values) change from baseline at Week 32, median ([1]; CVC 100 mg): 120000 pg/mL | sCD14 (original values) change from baseline at Week 48, mean ([1]; CVC 100 mg): 100000 pg/mL | sCD14 (original values) change from baseline at Week 48, median ([1]; CVC 100 mg): 100000 pg/mL | D-dimer baseline value, mean ([1]; CVC 200 mg): 184 ng/mL | D-dimer baseline value, median ([1]; CVC 200 mg): 125 ng/mL | D-dimer change from baseline at Week 24, mean ([1]; CVC 200 mg): -64 ng/mL | D-dimer change from baseline at Week 24, median ([1]; CVC 200 mg): -50 ng/mL | D-dimer change from baseline at Week 48, mean ([1]; CVC 200 mg): -70 ng/mL | D-dimer change from baseline at Week 48, median ([1]; CVC 200 mg): -50 ng/mL | Fibrinogen baseline value, mean ([1]; CVC 200 mg): 248 mg/dL | Fibrinogen baseline value, median ([1]; CVC 200 mg): 260 mg/dL | Fibrinogen change from baseline at Week 24, mean ([1]; CVC 200 mg): -7 mg/dL | Fibrinogen change from baseline at Week 24, median ([1]; CVC 200 mg): -8 mg/dL | Fibrinogen change from baseline at Week 48, mean ([1]; CVC 200 mg): -10 mg/dL | Fibrinogen change from baseline at Week 48, median ([1]; CVC 200 mg): -13 mg/dL | IL-6 baseline value, mean ([1]; CVC 200 mg): 3.34 pg/mL | IL-6 baseline value, median ([1]; CVC 200 mg): 1.90 pg/mL | IL-6 change from baseline at Week 24, mean ([1]; CVC 200 mg): 0.81 pg/mL | IL-6 change from baseline at Week 24, median ([1]; CVC 200 mg): 0.00 pg/mL | IL-6 change from baseline at Week 48, mean ([1]; CVC 200 mg): -0.04 pg/mL | IL-6 change from baseline at Week 48, median ([1]; CVC 200 mg): 0.00 pg/mL | MCP-1 baseline value, mean ([1]; CVC 200 mg): 153 pg/mL | MCP-1 baseline value, median ([1]; CVC 200 mg): 137 pg/mL | MCP-1 change from baseline at Week 24, mean ([1]; CVC 200 mg): 753 pg/mL | MCP-1 change from baseline at Week 24, median ([1]; CVC 200 mg): 695 pg/mL | MCP-1 change from baseline at Week 48, mean ([1]; CVC 200 mg): 900 pg/mL | MCP-1 change from baseline at Week 48, median ([1]; CVC 200 mg): 756 pg/mL | hs-CRP baseline value, mean ([1]; CVC 200 mg): 0.46 mg/dL | hs-CRP baseline value, median ([1]; CVC 200 mg): 0.15 mg/dL | hs-CRP change from baseline at Week 24, mean ([1]; CVC 200 mg): -0.04 mg/dL | hs-CRP change from baseline at Week 24, median ([1]; CVC 200 mg): -0.04 mg/dL | hs-CRP change from baseline at Week 48, mean ([1]; CVC 200 mg): -0.18 mg/dL | hs-CRP change from baseline at Week 48, median ([1]; CVC 200 mg): -0.04 mg/dL | sCD14 (original values) baseline value, mean ([1]; CVC 200 mg): 1.88e+06 pg/mL | sCD14 (original values) baseline value, median ([1]; CVC 200 mg): 1.86e+06 pg/mL | sCD14 (original values) change from baseline at Week 12, mean ([1]; CVC 200 mg): -230000 pg/mL | sCD14 (original values) change from baseline at Week 12, median ([1]; CVC 200 mg): -210000 pg/mL | sCD14 (original values) change from baseline at Week 24, mean ([1]; CVC 200 mg): -230000 pg/mL | sCD14 (original values) change from baseline at Week 24, median ([1]; CVC 200 mg): -190000 pg/mL | sCD14 (original values) change from baseline at Week 32, mean ([1]; CVC 200 mg): -20000 pg/mL | sCD14 (original values) change from baseline at Week 32, median ([1]; CVC 200 mg): -20000 pg/mL | sCD14 (original values) change from baseline at Week 48, mean ([1]; CVC 200 mg): -40000 pg/mL | sCD14 (original values) change from baseline at Week 48, median ([1]; CVC 200 mg): -40000 pg/mL | Deaths ([2]; All CVC (N = 115)): 0 n | SAE: Suicidal ideation, n subjects ([2]; All CVC (N = 115), EFV (N = 28), through Week 48): 0 | Grade 3 or 4 AE: Suicidal ideation, n subjects ([2]; All CVC (N = 115), EFV (N = 28; Grade 4 event)): 0 | Any AE, n subjects ([2]; CVC 100 mg (N = 58)): 51 | Any Grade 3 AE, n subjects ([2]; CVC 100 mg (N = 58)): 2 | Any Grade 4 AE, n subjects ([2]; CVC 100 mg (N = 58)): 0 | Deaths ([2]; CVC 100 mg (N = 58)): 0 n | Grade 3 or 4 AE: Abdominal pain, n subjects ([2]; CVC 100 mg (N = 58)): 1

From patent US20180110754A1, “CENICRIVIROC FOR THE TREATMENT OF FIBROSIS” (Tobira Therapeutics, Inc., priority 2015, published 2018)
